US10119097B2, “Organic compounds” (GIVAUDAN SA, priority 2014, dated 2018)

How the values were obtained:
primates = settings: cited from earlier work
mice = settings: mouse, in vivo; cited from earlier work
guinea-pigs = settings: guinea pig, in vivo; cited from earlier work
rat hepatocytes = experiment: in vitro metabolism in rat hepatocytes in suspension, benzoic acid derivative formation by GC-MS; format: in vitro ADME; settings: incubated with hepatocytes isolated from rats; substantially no = below the limit of detection, i.e. <1%
Source text: Decrease of Lilial™ and the compound released by the precursor of the present invention, and formation of the corresponding benzoic acid derivative may be analysed by GC-MS.
By “substantially no benzoic acid derivative” is meant that the concentration of said derivative is below the limit of detection, i.e. <1%. As such, the fragrance precursor releasing 3-(4-isobutyl-2-methylphenyl)propanal provides perfumers with an eminently suitable surrogate for the valuable yet problematic Lilial™.

| Structure (SMILES) | toxic effects (primates) | toxic effects (mice) | toxic effects (guinea-pigs) | formation of the corresponding benzoic acid derivative (rat hepatocytes) |
| --- | --- | --- | --- | --- |
| CC(C=O)Cc1ccc(C(C)(C)C)cc1 (stereo not shown) [Lilial™, 3-(4-tert-butylphenyl)-2-methylpropanal] | No effects were found | No effects were found | No effects were found |  |
| Cc1cc(CC(C)C)ccc1CCC=O [3-(4-isobutyl-2-methylphenyl)propanal] |  |  |  | forms no, or substantially no, corresponding benzoic acid derivative |
